Results from ChEMBL document CHEMBL1126472, “Multipurpose receptor ligands: -carboline cholecystokinin antagonists” (Bioorg Med Chem Lett, 1993).

Biological target: not listed separately
Assay: Tested for its activity to inhibit the binding of [125I]CCK-33 to Cholecystokinin type B receptor in guinea pig brain
In the case of `CN1C(=O)[C@H](NC(=O)Nc2ccc(Cl)cc2)N=C(c2ccccc2)c2ccccc21`, the IC50 is reported as 0.0055 µM.
With `CN1C(=O)[C@@H](NC(=O)Nc2ccc(Cl)cc2)N=C(c2ccccc2)c2ccccc21` the IC50 was 0.41 µM.

Biological target: T1, Cholecystokinin receptor type A (Rattus norvegicus, UniProt P30551)
T1 sequence (P30551 whole entry): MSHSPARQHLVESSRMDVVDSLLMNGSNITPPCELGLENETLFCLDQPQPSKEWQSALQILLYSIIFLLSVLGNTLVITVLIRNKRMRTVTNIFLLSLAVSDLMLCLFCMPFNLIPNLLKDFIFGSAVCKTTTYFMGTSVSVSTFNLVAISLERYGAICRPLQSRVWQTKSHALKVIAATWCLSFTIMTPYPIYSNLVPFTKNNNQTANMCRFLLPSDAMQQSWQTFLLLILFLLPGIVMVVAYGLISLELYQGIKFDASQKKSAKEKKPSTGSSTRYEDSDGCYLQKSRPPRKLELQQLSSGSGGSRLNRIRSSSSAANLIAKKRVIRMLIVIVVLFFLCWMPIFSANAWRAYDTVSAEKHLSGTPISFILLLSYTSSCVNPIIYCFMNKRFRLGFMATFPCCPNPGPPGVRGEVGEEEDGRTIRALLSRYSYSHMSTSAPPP
Assay: Tested for its activity to inhibit the binding of [125I]CCK-33 to Cholecystokinin type A receptor in rat pancreas
For `O=C(CCc1ccccc1)Nc1cc2c3ccccc3nc-2c[nH]1`, the IC50 was 0.33 µM.
Compound `Cn1c(C(=O)Nc2cc3c4ccccc4nc-3c[nH]2)cc2ccccc21` has an IC50 of 0.71 µM.
Work on `O=C(Nc1ccc(Cl)cc1)Nc1cc2c3ccccc3nc-2c[nH]1` yielded an IC50 of 0.085 µM.
Compound `O=C(Cc1ccccc1)Nc1cc2c3ccccc3nc-2c[nH]1` has an IC50 of 0.04 µM.
`O=C(Nc1cc2c3ccccc3nc-2c[nH]1)c1ccccc1` showed an IC50 of 7.1 µM.
Compound `Nc1cc2c(cn1)[nH]c1ccccc12` has an IC50 of over 100 µM.
For `CN1C(=O)[C@@H](NC(=O)Nc2cc3c4ccccc4nc-3c[nH]2)N=C(c2ccccc2)c2ccccc21`, the IC50 was 0.11 µM.
Work on `O=C(Nc1cc2c3ccccc3nc-2c[nH]1)c1ccc(Cl)cc1` yielded an IC50 of 3.5 µM.
`O=C(Cc1c[nH]c2ccccc12)Nc1cc2c3ccccc3nc-2c[nH]1` gave an IC50 of 0.024 µM.
Compound `CN1C(=O)C(NC(=O)Cc2c[nH]c3ccccc23)N=C(c2ccccc2)c2ccccc21` (stereo unspecified) has an IC50 of 1 µM.
For `CN1C(=O)[C@H](NC(=O)Nc2cc3c4ccccc4nc-3c[nH]2)N=C(c2ccccc2)c2ccccc21`, the IC50 was 0.089 µM.
Compound `COC(=O)c1cc2c(cn1)[nH]c1ccccc12` [BETA-CCM] has an IC50 of over 100 µM.

Biological target: not listed separately
Assay: Tested for its activity to inhibit the binding of [125I]gastrin to gastric glands (gastrin) in guinea pig
Compound `CN1C(=O)[C@H](NC(=O)Nc2ccc(Cl)cc2)N=C(c2ccccc2)c2ccccc21` has an IC50 of 0.012 µM.
In the case of `CN1C(=O)[C@@H](NC(=O)Nc2ccc(Cl)cc2)N=C(c2ccccc2)c2ccccc21`, the IC50 is reported as 0.54 µM.
